US8859596B2, “Compounds as cannabinoid receptor ligands” (priority 2008, dated 2014)
pKi: −log10 of the molar value. Like-named read-outs stand apart in the source and are kept apart here.

Assays:
[1] = target: human CB2 receptors (Homo sapiens (Human), UniProt P34972); assay: human CB2 radioligand binding assay ([3H]CP 55,940 competition)
Experimental: (§1) The CB1 and CB2 radioligand binding assays described herein are utilized to ascertain the affinity of compounds of the present application for binding to CB2 relative to CB1 receptors.
HEK293 cells stably expressing human CB2 receptors were grown until a confluent monolayer was formed. Briefly, the cells were harvested and homogenized in TE buffer (50 mM Tris-HCl, 1 mM MgCl2, and 1 mM EDTA) using a polytron for 2×10 second bursts in the presence of protease inhibitors, followed by centrifugation at 45,000×g for 20 minutes. The final membrane pellet was re-homogenized in storage buffer (50 mM Tris-HCl, 1 mM MgCl2, and 1 mM EDTA and 10% sucrose) and frozen at −78° C. until used. Saturation binding reactions were initiated by the addition of membrane preparation (protein concentration of 5 μg/well for human CB2) into wells of a deep well plate containing [^3H]CP 55,940 (120 Ci/mmol, a nonselective CB agonist commercially available from Tocris) in assay buffer (50 mM Tris, 2.5 mM EDTA, 5 mM MgCl2, and 0.5 mg/mL fatty acid free BSA, pH 7.4). After 90 min incubation at 30° C., binding reaction was terminated by the addition of 300 μL/well of cold assay buffer followed by rapid vacuum filtration through a UniFilter-96 GF/C filter plates (pre-soaked in 1 mg/mL BSA for 2 hours). The bound activity was counted in a TopCount using Microscint-20. Saturation experiments were conducted with twelve concentrations of [^3H]CP 55,940 ranging from 0.01 to 8 nM. Competition experiments were conducted with 0.5 nM [^3H]CP 55,940 and five concentrations (0.01 nM to 10 μM) of displacing ligands. The addition of 10 μM unlabeled CP 55,940 (Tocris, Ellisville, Mo.) was used to assess nonspecific binding.

[2] = target: rat CB2 (Rattus norvegicus (Rat), UniProt Q9QZN9); assay: rat CB2 radioligand binding assay ([3H]CP 55,940 competition)
Sequence of rat CB2 (Q9QZN9 whole entry): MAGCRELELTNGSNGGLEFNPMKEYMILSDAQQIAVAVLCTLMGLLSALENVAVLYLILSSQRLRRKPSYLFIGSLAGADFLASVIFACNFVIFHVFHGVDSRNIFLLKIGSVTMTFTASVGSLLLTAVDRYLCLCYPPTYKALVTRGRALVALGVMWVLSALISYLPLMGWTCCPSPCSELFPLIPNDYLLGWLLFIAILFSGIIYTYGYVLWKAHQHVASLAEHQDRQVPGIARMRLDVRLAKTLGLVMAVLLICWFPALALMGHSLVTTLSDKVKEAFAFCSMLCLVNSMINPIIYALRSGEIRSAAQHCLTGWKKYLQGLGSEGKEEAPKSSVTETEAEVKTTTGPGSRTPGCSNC
Experimental: as §1
HEK293 cells stably expressing rat CB2 receptors were grown until a confluent monolayer was formed. Briefly, the cells were harvested and homogenized in TE buffer (50 mM Tris-HCl, 1 mM MgCl2, and 1 mM EDTA) using a polytron for 2×10 second bursts in the presence of protease inhibitors, followed by centrifugation at 45,000×g for 20 minutes. The final membrane pellet was re-homogenized in storage buffer (50 mM Tris-HCl, 1 mM MgCl2, and 1 mM EDTA and 10% sucrose) and frozen at −78° C. until used. Saturation binding reactions were initiated by the addition of membrane preparation (protein concentration of 20 μg/well for rat CB2) into wells of a deep well plate containing [^3H]CP 55,940 (120 Ci/mmol, a nonselective CB agonist commercially available from Tocris) in assay buffer (50 mM Tris, 2.5 mM EDTA, 5 mM MgCl2, and 0.5 mg/mL fatty acid free BSA, pH 7.4). After 45 min incubation at 30° C., binding reaction was terminated by the addition of 300 μl/well of cold assay buffer followed by rapid vacuum filtration through a UniFilter-96 GF/C filter plates (pre-soaked in 1 mg/mL BSA for 2 hours). The bound activity was counted in a TopCount using Microscint-20. Saturation experiments were conducted with twelve concentrations of [^3H]CP 55,940 ranging from 0.01 to 8 nM. Competition experiments were conducted with 0.5 nM [^3H]CP 55,940 and five concentrations of displacing ligands selected from the range of 0.01 nM to […] addition of 10 μM unlabeled CP 55,940 (Tocris, Ellisville, Mo.) was used to assess nonspecific binding.

[3] = HEK293 membranes, 0.5 nM [3H]CP 55,940, read-out: human CB2 (Ki)
[4] = HEK293 membranes, 0.5 nM [3H]CP 55,940, read-out: rat CB2 (Ki)

Sequence of human CB2 receptors (P34972 whole entry): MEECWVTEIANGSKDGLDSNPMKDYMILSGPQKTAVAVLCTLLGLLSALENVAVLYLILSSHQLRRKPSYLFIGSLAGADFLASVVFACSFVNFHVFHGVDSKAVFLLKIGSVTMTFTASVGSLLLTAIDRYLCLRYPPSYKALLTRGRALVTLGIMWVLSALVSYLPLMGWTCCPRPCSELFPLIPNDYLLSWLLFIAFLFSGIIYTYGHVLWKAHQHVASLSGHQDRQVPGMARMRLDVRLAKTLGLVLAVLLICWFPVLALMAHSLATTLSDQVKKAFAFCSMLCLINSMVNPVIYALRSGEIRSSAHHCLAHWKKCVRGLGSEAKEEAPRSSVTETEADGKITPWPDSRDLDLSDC

| Compound | pKi [1] | pKi [2] | pKi [1, 3] | pKi [2, 4] |
| --- | --- | --- | --- | --- |
| CCCCn1nc(C(C)(C)C)s/c1=N\C(=O)c1cc(C(F)(F)F)ccc1N/N=C\c1cccc(C)n1 [Example 35, N-[(2Z)-3-butyl-5-tert-butyl-1,3,4-thiadiazol-2(3H)-ylidene]-2-{(2Z)-2-[(6-methylpyridin-2-yl)methylene]hydrazino}-5-(trifluoromethyl)benzamide] | 6.73 | 7.70 | – | – |
| CCCCn1nc(C2(C)CC2)s/c1=N\C(=O)c1cc(C(F)(F)F)ccc1ONC(C)(C)C [Example 145, 2-[(tert-butylamino)oxy]-N-[(2Z)-3-butyl-5-(1-methylcyclopropyl)-1,3,4-thiadiazol-2(3H)-ylidene]-5-(trifluoromethyl)benzamide] | – | – | 7.80 | 8.60 |
| Cn1c(C(C)(C)C)c/c(=N\C(=O)c2cc(C(F)(F)F)ccc2ONC(C)(C)C)n1CC1CC1 [Example 146, 2-[(tert-butylamino)oxy]-N-[(3E)-5-tert-butyl-2-(cyclopropylmethyl)-1-methyl-1,2-dihydro-3H-pyrazol-3-ylidene]-5-(trifluoromethyl)benzamide] | 7.27 | 7.85 | – | – |
| CC(C)(C)NOc1ccc(C(F)(F)F)cc1C(=O)/N=c1\sc(C(C)(C)C)nn1CC1CCCCO1 (stereo not drawn) [Example 147, 2-[(tert-butylamino)oxy]-N-[(2Z)-5-tert-butyl-3-(tetrahydro-2H-pyran-2-ylmethyl)-1,3,4-thiadiazol-2(3H)-ylidene]-5-(trifluoromethyl)benzamide] | – | – | 8.77 | 9.15 |
| CCCCn1nc(C(C)(C)C)s/c1=N\C(=O)c1cc(C(F)(F)F)ccc1/N=N/C(C)(C)C [Example 148, N-[(2Z)-3-butyl-5-tert-butyl-1,3,4-thiadiazol-2(3H)-ylidene]-2-[(E)-tert-butyldiazenyl]-5-(trifluoromethyl)benzamide] | – | – | 8.21 | 7.82 |
| CCCCn1/c(=N/C(=O)c2cc(C(F)(F)F)ccc2ONC(C)(C)C)cc(C(C)(C)C)n1C [Example 149, 2-[(tert-butylamino)oxy]-N-[(3E)-2-butyl-5-tert-butyl-1-methyl-1,2-dihydro-3H-pyrazol-3-ylidene]-5-(trifluoromethyl)benzamide] | 7.11 | 8.26 | – | – |
| CCCCn1nc(C(C)(C)C)s/c1=N\C(=O)c1cc(C(F)(F)F)ccc1O/N=C(\C)C(C)(C)C [Example 150, N-[(2Z)-3-butyl-5-tert-butyl-1,3,4-thiadiazol-2(3H)-ylidene]-5-(trifluoromethyl)-2-({[(1E)-1,2,2-trimethylpropylidene]amino}oxy)benzamide] | – | – | 6.67 | 6.55 |
| CC(C)Cn1nc(C(C)(C)C)s/c1=N\C(=O)c1cc(C(F)(F)F)ccc1ONC(C)(C)C [Example 152, 2-[(tert-butylamino)oxy]-N-[(2Z)-5-tert-butyl-3-isobutyl-1,3,4-thiadiazol-2(3H)-ylidene]-5-(trifluoromethyl)benzamide] | – | – | 7.54 | 7.51 |
| Cn1c(C(C)(C)C)c/c(=N\C(=O)c2cc(C(F)(F)F)ccc2ONC(C)(C)C)n1CC1CCC1 [Example 155, 2-[(tert-butylamino)oxy]-N-[(3E)-5-tert-butyl-2-(cyclobutylmethyl)-1-methyl-1,2-dihydro-3H-pyrazol-3-ylidene]-5-(trifluoromethyl)benzamide] | 7.57 | 7.85 | – | – |
| Cn1c(C(C)(C)C)c/c(=N\C(=O)c2cc(C(F)(F)F)ccc2ONC(C)(C)C)n1CCC(F)(F)F [Example 156, 2-[(tert-butylamino)oxy]-N-[(3E)-5-tert-butyl-1-methyl-2-(3,3,3-trifluoropropyl)-1,2-dihydro-3H-pyrazol-3-ylidene]-5-(trifluoromethyl)benzamide] | 7.17 | 8.00 | – | – |
| CCCCn1ccc(C(C)(C)C)c/c1=N\C(=O)c1cc(C(F)(F)F)ccc1ONC(C)(C)C [Example 157, 2-[(tert-butylamino)oxy]-N-[(2E)-1-butyl-4-tert-butylpyridin-2(1H)-ylidene]-5-(trifluoromethyl)benzamide] | – | – | 6.89 | 8.03 |
| COCCn1nc(C(C)(C)C)s/c1=N\C(=O)c1cc(C(F)(F)F)ccc1ONC(C)(C)C [Example 158, 2-[(tert-butylamino)oxy]-N-[(2Z)-5-tert-butyl-3-(2-methoxyethyl)-1,3,4-thiadiazol-2(3H)-ylidene]-5-(trifluoromethyl)benzamide] | – | – | 7.41 | 8.44 |
| CCCCn1/c(=N/C(=O)c2cc(C(F)(F)F)ccc2ONC(C)C)cc(C(C)(C)C)n1C [Example 159, N-[(3E)-2-butyl-5-tert-butyl-1-methyl-1,2-dihydro-3H-pyrazol-3-ylidene]-2-[(isopropylamino)oxy]-5-(trifluoromethyl)benzamide] | – | – | 7.80 | 8.28 |
| CCCCn1cc(C(C)(C)C)cc/c1=N\C(=O)c1cc(C(F)(F)F)ccc1ONC(C)(C)C [Example 160, 2-[(tert-butylamino)oxy]-N-[(2E)-1-butyl-5-tert-butylpyridin-2(1H)-ylidene]-5-(trifluoromethyl)benzamide] | – | – | 7.06 | 8.23 |
| Cn1c(C(C)(C)C)c/c(=N\C(=O)c2cc(C#N)ccc2ONC(C)(C)C)n1C[C@H]1CCCO1 [Example 161, 2-[(tert-butylamino)oxy]-N-{(3E)-5-tert-butyl-1-methyl-2-[(2R)-tetrahydrofuran-2-ylmethyl]-1,2-dihydro-3H-pyrazol-3-ylidene}-5-cyanobenzamide] | – | – | 6.68 | 7.96 |
| CCCCn1nc(C(C)(C)C)s/c1=N\C(=O)c1cc(Cl)ccc1ONC(C)(C)C [Example 162, 2-[(tert-butylamino)oxy]-N-[(2Z)-3-butyl-5-tert-butyl-1,3,4-thiadiazol-2(3H)-ylidene]-5-chlorobenzamide] | – | – | 8.07 | 9.22 |
| CC(C)(C)NOc1ccc(C(F)(F)F)cc1C(=O)/N=c1\sc(C(C)(C)C)nn1CC1CC1 [Example 163, 2-[(tert-butylamino)oxy]-N-[(2Z)-5-tert-butyl-3-(cyclopropylmethyl)-1,3,4-thiadiazol-2(3H)-ylidene]-5-(trifluoromethyl)benzamide] | – | – | 7.80 | 8.52 |
| Cn1c(C(C)(C)C)c/c(=N\C(=O)c2cc(Cl)ccc2ONC(C)(C)C)n1C[C@H]1CCCO1 [Example 168, 2-[(tert-butylamino)oxy]-N-{(3E)-5-tert-butyl-1-methyl-2-[(2R)-tetrahydrofuran-2-ylmethyl]-1,2-dihydro-3H-pyrazol-3-ylidene}-5-chlorobenzamide] | – | – | 7.28 | 7.68 |
| CCCCn1nc(C(C)(C)C)s/c1=N\C(=O)c1cc(C(F)(F)F)ccc1ONC(=O)C(C)(C)C [Example 169, N-[(2Z)-3-butyl-5-tert-butyl-1,3,4-thiadiazol-2(3H)-ylidene]-2-{[(2,2-dimethylpropanoyl)amino]oxy}-5-(trifluoromethyl)benzamide] | – | – | 9.22 | 9.22 |
| CCCCn1nc(C(C)(C)C)s/c1=N\C(=O)c1ccc(C(F)(F)F)cc1ONC(C)(C)C [Example 170, 2-[(tert-butylamino)oxy]-N-[(2Z)-3-butyl-5-tert-butyl-1,3,4-thiadiazol-2(3H)-ylidene]-4-(trifluoromethyl)benzamide] | – | – | 6.90 | 8.20 |
| CCCCn1nc(C(C)(C)C)s/c1=N\C(=O)c1cc(C(F)(F)F)ccc1ON(C)C [Example 171, N-[(2Z)-3-butyl-5-tert-butyl-1,3,4-thiadiazol-2(3H)-ylidene]-2-[(dimethylamino)oxy]-5-(trifluoromethyl)benzamide] | 7.68 | 8.31 | – | – |
